TGI data for 10 molecules are collected here from PubChem BioAssay (NCI).

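48-hour exposure; five concentrations; linearly interpolated endpoints. At the TGI there is no net growth.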 Where a SMILES comes first, the peptide text is derived from it. [ ]: non-standard residue; d: D form. The star is where a group is joined. Hyp = O=C(O)[CH]1C[CH](O)CN1; Cbz = O=C(OCc1ccccc1)* Some results are limits rather than exact numbers.

Some test systems named below: SF-539 CNS; COLO 205 colon; KM12 colon; SNB-19 CNS; T-47D breast; MDA-MB-435; ACHN renal; NCI-H226 lung; NCI-H522 lung; K-562 leukemia; OVCAR-4 ovarian; OVCAR-3 ovarian; EKVX NSCLC; UO-31 renal; MCF7 breast.
Assay in all cases: inhibition of tumour cell growth, NCI panel, 48 h

As to `CN(C)c1cccc2c(S(=O)(=O)NCCCNCCN)cccc12`, the TGI in the assay on SF-539 CNS was 49.7 µM; in the assay with COLO 205 colon, 32.8 µM; in the assay on KM12 colon it was more than 100 µM; in the assay with SNB-19 CNS, more than 100 µM; with T-47D breast it was more than 100 µM; with MDA-MB-435, 65.8 µM. For the same molecule, the TGI in the assay with ACHN renal was more than 100 µM; in the assay with NCI-H226 lung, more than 100 µM; in the assay on NCI-H522 lung, more than 100 µM; in the assay on K-562 leukemia it was 43.1 µM; in the assay with OVCAR-4 ovarian it was more than 100 µM; with OVCAR-3 ovarian, more than 100 µM. The TGI in the assay on EKVX NSCLC and in the assay on UO-31 renal was more than 100 µM each time.
Turning to `CCCCCCCCCc1cc(=O)c2c(O)cc(O)cc2o1`, the TGI was found to be 34.4 µM in the assay on SF-539 CNS; 54.2 µM in the assay on COLO 205 colon; 21.3 µM in the assay on KM12 colon; 34.7 µM in the assay on SNB-19 CNS; 51.1 µM with T-47D breast; 41.1 µM in the assay with MDA-MB-435. Also, the TGI in the assay with ACHN renal turned out to be 34.5 µM; with NCI-H226 lung, 36 µM; in the assay with NCI-H522 lung it was 31.5 µM; in the assay on K-562 leukemia, 26 µM; with OVCAR-4 ovarian it was 40.9 µM; with OVCAR-3 ovarian, 30.4 µM. Besides, the TGI in the assay with EKVX NSCLC turned out to be 37.5 µM; in the assay on UO-31 renal, 32.6 µM.
`C#C[C@@H](OC(=O)c1ccc([N+](=O)[O-])cc1)[C@@H]1C[C@H]2O[C@@H]([C@H](C/C=C/CC)OC(=O)c3ccc([N+](=O)[O-])cc3)C[C@H]2O1`: the TGI in the assay on SF-539 CNS, in the assay on COLO 205 colon, with KM12 colon, in the assay with SNB-19 CNS, with T-47D breast and in the assay with MDA-MB-435 was more than 100 µM in each case. For the same molecule, the TGI in the assay with ACHN renal, in the assay with NCI-H226 lung, with NCI-H522 lung, with K-562 leukemia, in the assay with OVCAR-4 ovarian and with OVCAR-3 ovarian was more than 100 µM throughout. For the same molecule, the TGI in the assay with EKVX NSCLC and in the assay with UO-31 renal was more than 100 µM in each case.
For the molecule `CN(C)c1ccc(/C=C2\C[C@H]3[C@@H]4CC=C5C[C@@H](O)CC[C@]5(C)[C@H]4CC[C@]3(C)[C@H]2O)cc1`, the TGI in the assay with SF-539 CNS is 22.1 µM; in the assay on COLO 205 colon it was 23 µM; in the assay on KM12 colon, more than 100 µM; with SNB-19 CNS, 37.1 µM; with T-47D breast, 76.6 µM; in the assay on ACHN renal, 30.7 µM. Also, the TGI in the assay with MCF7 breast was 34.4 µM; in the assay with NCI-H226 lung, 34.7 µM; in the assay with K-562 leukemia, more than 100 µM; in the assay with OVCAR-4 ovarian, 98.6 µM; in the assay on OVCAR-3 ovarian, 59.8 µM; in the assay on EKVX NSCLC, 23.8 µM. Also, the TGI in the assay with UO-31 renal amounted to 36.9 µM.
In the case of `COc1cc([N+](=O)[O-])cc2c1NC(=O)C2(C)SC` (stereo not given), the TGI with COLO 205 colon, in the assay on KM12 colon, in the assay on SNB-19 CNS, in the assay with T-47D breast, in the assay on MDA-MB-435 and in the assay with ACHN renal was more than 100 µM throughout. Further, the TGI in the assay on MCF7 breast, in the assay with NCI-H226 lung, in the assay on NCI-H522 lung, in the assay on K-562 leukemia, in the assay with OVCAR-4 ovarian and with OVCAR-3 ovarian was more than 100 µM each time. In addition, the TGI in the assay with EKVX NSCLC and in the assay with UO-31 renal was more than 100 µM in each case.
Consider `Cc1[nH]c2[nH]c(=S)nc(NC(N)=S)c2c1Cc1ccccc1`, for which the TGI in the assay with SF-539 CNS is more than 100 µM; in the assay with COLO 205 colon, 34 µM; with KM12 colon, 40.7 µM; with SNB-19 CNS it was more than 100 µM; in the assay with T-47D breast, 89.4 µM; in the assay on MDA-MB-435 it was 36.6 µM. Also, the TGI in the assay with ACHN renal was more than 100 µM; with MCF7 breast, more than 100 µM; with NCI-H226 lung it was more than 100 µM; in the assay with K-562 leukemia, more than 100 µM; in the assay with OVCAR-3 ovarian, 77.4 µM; in the assay on EKVX NSCLC, more than 100 µM. The TGI in the assay with UO-31 renal is more than 100 µM.
For the molecule `NC(=O)CNC(=O)C1CC(O)CN1C(=O)C1CCCN1C(=O)OCc1ccccc1` (stereo not drawn) (Cbz-Pro-[Hyp]-Gly-NH2; configuration not given here), the TGI in the assay on COLO 205 colon, with KM12 colon, in the assay on SNB-19 CNS, in the assay on T-47D breast, with MDA-MB-435 and in the assay with ACHN renal was more than 100 µM each time. The TGI in the assay with MCF7 breast, with NCI-H226 lung, with NCI-H522 lung, in the assay with K-562 leukemia, in the assay with OVCAR-4 ovarian and with OVCAR-3 ovarian was more than 100 µM throughout. The TGI in the assay with EKVX NSCLC and in the assay on UO-31 renal was more than 100 µM in each case.
As to `CCOC(=O)/C=C(\C(=O)OCC)n1cc(C)c(=O)n(Cc2cn(COCCOC(C)=O)nn2)c1=O`, the TGI is 9.74 µM in the assay with SF-539 CNS; 11.1 µM with COLO 205 colon; 30.4 µM in the assay with KM12 colon; 39 µM in the assay on SNB-19 CNS; more than 100 µM in the assay with T-47D breast; 28.2 µM in the assay on MDA-MB-435. Further, the TGI in the assay with ACHN renal is 19.5 µM; in the assay on MCF7 breast, 22 µM; with K-562 leukemia it was more than 100 µM; in the assay on OVCAR-4 ovarian, 48.7 µM; in the assay with OVCAR-3 ovarian, 27.6 µM; in the assay on EKVX NSCLC, 22.5 µM. Also, the TGI in the assay with UO-31 renal was 26.9 µM.
On to `CN1C(CC(O)c2ccccc2)CCCC1CC(O)(c1ccccc1)c1ccccc1` (stereo not given), for which the TGI was 27.3 µM in the assay with SF-539 CNS; 34.2 µM with COLO 205 colon; 36.6 µM in the assay with KM12 colon; 36.3 µM in the assay on SNB-19 CNS; 52.7 µM in the assay with T-47D breast; 52.2 µM with ACHN renal. In addition, the TGI with MCF7 breast was determined as 43.4 µM; in the assay on NCI-H226 lung, 38.5 µM; with NCI-H522 lung it was 42.3 µM; in the assay with K-562 leukemia, 94.8 µM; with OVCAR-3 ovarian, 31.3 µM; in the assay on EKVX NSCLC, 64.5 µM. Moreover, the TGI in the assay on UO-31 renal turned out to be 20.8 µM.
In the case of `O=C1c2ccccc2C(=O)c2c1sc1nc3ccccc3n21`, the TGI with SF-539 CNS turned out to be 3.81 µM; in the assay on COLO 205 colon, 3.61 µM; in the assay with KM12 colon, 3.91 µM; in the assay with SNB-19 CNS, 4.42 µM; with T-47D breast, 9.02 µM; with MDA-MB-435, 4.37 µM. For the same molecule, the TGI in the assay with ACHN renal worked out at 6.27 µM; in the assay on MCF7 breast it was 3.84 µM; in the assay with NCI-H226 lung, 21.2 µM; in the assay with K-562 leukemia, 5.09 µM; in the assay on OVCAR-3 ovarian it was 9.34 µM; with EKVX NSCLC it was 4.6 µM. In the assay on UO-31 renal, this molecule returned a TGI of 3.89 µM.
